# Experimental data published in patent US20230086007A1, “USE OF DENATONIUM BENZOATE AS A SEED TREATMENT FOR CROPS AS BIRD AND/OR INSECT REPELLENT” (KWS SAAT SE & Co. KGaA, priority 2020, published 2023).
# Several values for one entry are separate records, joined by “and”; a condition that tells them apart may be missing. Equal entries are not always repeated. Entries after “also recorded” stand apart in the source; their conditions may differ.
# Experiments:
# [1] = LC-MS-MS determination of denatonium benzoate in corn plants grown from treated seed; assay type: in vivo, Zea mays; conditions: for Bitrex concentration: first leaf of corn seedling
# Procedure: To determine, if denatonium benzoate could be systemic (taken up by the plant), a Liquid Chromatography with tandem mass spectrometry (LC-MS-MS) was performed, which is a powerful analytical technique that combines the separating power of liquid chromatography with the highly sensitive and selective mass analysis capability of triple quadrupole mass spectrometry. Therefore, we used 1) seedlings just after field emergence to determine the content of denatonium benzoate in the complete plant and in the sprout separately (Table 3), as well as 2) middle-aged plants (V6-V8), where the leaves have been investigated (Table 4).
# Beside above experiments the concentration of Bitrex in the first leaf of the seedling have been measured wherein different dosages of Bitrex have been applied to the seed. The higher the application rate, the higher was the Bitrex concentration in the tested leaf tissue.
# corvid = test: Additional bird repellent field trials at three locations in Germany, plant stand counts; assay type: in vivo, Corvus; conditions: corn seed, denatonium benzoate 1 g/50.000 seeds
# Description: The bird repellent effect of denatonium benzoate has further been evaluated in additional field trials at three different location in Germany. Denatonium benzoate alone (DNB) or denatonium benzoate in combination with a solution of micronutrients (DNB+HA450) mixed with a sticker have been applied to the seeds. Denatonium benzoate has been applied in a concentration of 1 g/50.000 seeds. Three chemical references have been included in the trials: Korit (active substance: Ziram), Curb Crop Garden Powder with Sphere's formulation (active substance: aluminium ammonium sulphate) and Schwefal (active substance: organic sulfur). As negative control untreated seed has been used.
# Plant stand counts have been assessed and summarized. […] Results of earlier field trials have been confirmed.
# corn seeds = test: Phytotoxicity: cold test germination rate (CT) of treated corn seeds; conditions: for ΔCT: vs no Bitrex
# Procedure: In order to evaluate the phytotoxicity of different corn seed treatments, safety tests were conducted. Germination rates of corn seeds treated with various concentrations of denatonium benzoate (Bitrex®) [in g per unit, where 1 unit is 50.000 seeds] were counted after five days at 25° C. Cold test germination rates (CT) were counted after 7 days at 10° C. and 5 days at 25° C. The treatments were compared to untreated seeds.
# KF=germination rates counted after 5 days at 25° C. and CT=cold test germination rates counted after 7 days at 10° C. and 5 days at 25° C.
# [2] = corn Amavit, chemical no, Bitrex 0.2 g/u
# [3] = corn Amavit, chemical no, Bitrex 0.5 g/u
# [4] = corn Amavit, chemical no, Bitrex 1.0 g/u
# [5] = corn Amavit, chemical no, Bitrex 2.0 g/u
# [6] = corn Amavit, chemical no, Bitrex 5.0 g/u
# [7] = corn Amavit, with MaximXL, Bitrex 0.2 g/u
# [8] = corn Amavit, with MaximXL, Bitrex 0.5 g/u
# [9] = corn Amavit, with MaximXL, Bitrex 1.0 g/u
# [10] = corn Amavit, with MaximXL, Bitrex 2.0 g/u
# [11] = corn Amavit, with MaximXL, Bitrex 5.0 g/u
# [12] = corn Amavit, with RedigoM, Bitrex 0.2 g/u
# [13] = corn Amavit, with RedigoM, Bitrex 0.5 g/u
# [14] = corn Amavit, with RedigoM, Bitrex 1.0 g/u
# [15] = corn Amavit, with RedigoM, Bitrex 2.0 g/u
# [16] = corn Amavit, with RedigoM, Bitrex 5.0 g/u
smiles,measurement,setting,value
"CC[N+](CC)(CC(=O)Nc1c(C)cccc1C)Cc1ccccc1.O=C([O-])c1ccccc1 [Bitrex, N-Benzyl-2-(2,6-dimethylanilino)-N, N-diethyl-2-oxoethan-1-aminium benzoate]",μg DNB/plant or sprout,"[1]; corn seedlings just after field emergence, complete plants",5.87 μg DNB/plant or sprout
same,concentration in sprouts,"[1]; corn, early stage",200-800 ppb
same,concentration in the complete plant,"[1]; corn, early stage",10-20 ppm
same,Bitrex concentration,[1]; 0.8 g/unit applied to seed,36.8 ng/g
same,Bitrex concentration,[1]; 1 g/unit applied to seed,96.2 ng/g and 88.7 ng/g and 75.2 ng/g and 55.0 ng/g and 70.4 ng/g and 97.1 ng/g
same,Bitrex concentration,[1]; 2 g/unit applied to seed,178.2 ng/g and 155.6 ng/g
same,concentration in leaves,[1]; middle-aged corn plants,5-20 ppb
same,Final Conc.,"[1]; middle-aged corn plants (V6-V8), leaves, sample 14 DNB 0.8g, plants P1-P3, listed as DNB",5.49 ppb/ng/g and 5.34 ppb/ng/g and 5.46 ppb/ng/g
same,efficiency as corvid repellent for corn,corvid,excellent effect; also recorded: comparable with the best bird repellents like Korit and Sphere
same,"CT cold test germination rate, 7 days at 10° C. and 5 days at 25° C.",corn seeds; [2],91.5%
same,"CT cold test germination rate, 7 days at 10° C. and 5 days at 25° C.",corn seeds; [3],89.0%
same,"CT cold test germination rate, 7 days at 10° C. and 5 days at 25° C.",corn seeds; [4],95.5%
same,"CT cold test germination rate, 7 days at 10° C. and 5 days at 25° C.",corn seeds; [5],93.0%
same,"CT cold test germination rate, 7 days at 10° C. and 5 days at 25° C.",corn seeds; [6],96.5%
same,"CT cold test germination rate, 7 days at 10° C. and 5 days at 25° C.",corn seeds; [7],98.0%
same,"CT cold test germination rate, 7 days at 10° C. and 5 days at 25° C.",corn seeds; [8],98.0%
same,"CT cold test germination rate, 7 days at 10° C. and 5 days at 25° C.",corn seeds; [9],97.0%
same,"CT cold test germination rate, 7 days at 10° C. and 5 days at 25° C.",corn seeds; [10],99.0%
same,"CT cold test germination rate, 7 days at 10° C. and 5 days at 25° C.",corn seeds; [11],99.0%
same,"CT cold test germination rate, 7 days at 10° C. and 5 days at 25° C.",corn seeds; [12],97.5%
same,"CT cold test germination rate, 7 days at 10° C. and 5 days at 25° C.",corn seeds; [13],99.0%
same,"CT cold test germination rate, 7 days at 10° C. and 5 days at 25° C.",corn seeds; [14],99.0%
same,"CT cold test germination rate, 7 days at 10° C. and 5 days at 25° C.",corn seeds; [15],95.5%
same,"CT cold test germination rate, 7 days at 10° C. and 5 days at 25° C.",corn seeds; [16],96.5%
same,"CT cold test germination rate, 7 days at 10° C. and 5 days at 25° C.","corn seeds; corn KXB6432, chemical no, Bitrex 0.2 g/u",98.0%
same,"CT cold test germination rate, 7 days at 10° C. and 5 days at 25° C.","corn seeds; corn KXB6432, chemical no, Bitrex 0.5 g/u",97.5%
same,"CT cold test germination rate, 7 days at 10° C. and 5 days at 25° C.","corn seeds; corn KXB6432, chemical no, Bitrex 1.0 g/u",97.0%
same,"CT cold test germination rate, 7 days at 10° C. and 5 days at 25° C.","corn seeds; corn KXB6432, chemical no, Bitrex 2.0 g/u",90.5%
same,"CT cold test germination rate, 7 days at 10° C. and 5 days at 25° C.","corn seeds; corn KXB6432, chemical no, Bitrex 5.0 g/u",90.5%
same,"CT cold test germination rate, 7 days at 10° C. and 5 days at 25° C.","corn seeds; corn KXB6432, with MaximXL, Bitrex 0.2 g/u",100.0%
same,"CT cold test germination rate, 7 days at 10° C. and 5 days at 25° C.","corn seeds; corn KXB6432, with MaximXL, Bitrex 0.5 g/u",99.5%
same,"CT cold test germination rate, 7 days at 10° C. and 5 days at 25° C.","corn seeds; corn KXB6432, with MaximXL, Bitrex 1.0 g/u",98.0%
same,"CT cold test germination rate, 7 days at 10° C. and 5 days at 25° C.","corn seeds; corn KXB6432, with MaximXL, Bitrex 2.0 g/u",96.5%
same,"CT cold test germination rate, 7 days at 10° C. and 5 days at 25° C.","corn seeds; corn KXB6432, with MaximXL, Bitrex 5.0 g/u",99.0%
same,"CT cold test germination rate, 7 days at 10° C. and 5 days at 25° C.","corn seeds; corn KXB6432, with RedigoM, Bitrex 0.2 g/u",97.0%
same,"CT cold test germination rate, 7 days at 10° C. and 5 days at 25° C.","corn seeds; corn KXB6432, with RedigoM, Bitrex 0.5 g/u",96.5%
same,"CT cold test germination rate, 7 days at 10° C. and 5 days at 25° C.","corn seeds; corn KXB6432, with RedigoM, Bitrex 1.0 g/u",99.5%
same,"CT cold test germination rate, 7 days at 10° C. and 5 days at 25° C.","corn seeds; corn KXB6432, with RedigoM, Bitrex 2.0 g/u",98.5%
same,"CT cold test germination rate, 7 days at 10° C. and 5 days at 25° C.","corn seeds; corn KXB6432, with RedigoM, Bitrex 5.0 g/u",96.5%
same,ΔCT,corn seeds; [2],6.0%
same,ΔCT,corn seeds; [3],3.5%
same,ΔCT,corn seeds; [4],10.0%
same,ΔCT,corn seeds; [5],7.5%
same,ΔCT,corn seeds; [6],11.0%
same,ΔCT,corn seeds; [7],−2.0%
same,ΔCT,corn seeds; [8],−2.0%
same,ΔCT,corn seeds; [9],−3.0%
same,ΔCT,corn seeds; [10],−1.0%
same,ΔCT,corn seeds; [11],−1.0%
same,ΔCT,corn seeds; [12],0.5%
same,ΔCT,corn seeds; [13],2.0%
same,ΔCT,corn seeds; [14],2.0%
same,ΔCT,corn seeds; [15],−1.5%
same,ΔCT,corn seeds; [16],−0.5%
